Assay results published in patent publication US20230173071A1, “TREATMENT OF MYOPIA AND OTHER OCULAR CONDITIONS USING SINGLET OXYGEN GENERATED FROM DYES ACTIVATED BY NEAR-INFRARED LIGHT” (California Institute of Technology, priority 2018, published 2023).

Experiments:
[1] = test system: sclera of enucleated young rabbit eyes; test: Eye expansion test - whole eye treatment, scleral area analysis; details: for reduction in expansion, treated vs untreated: ICG with sodium iodide (NaI) additive in D2O; for reduction in expansion, fully treated eyes vs NIR light only treated eyes: ICG/NaI/D2O with NIR light
Procedure: Enucleated young rabbit eyes were provided from collaborators at University of California, San Francisco (UCSF). These were shipped overnight and used within 1-4 days. Upon arrival, they were stored in Dulbecco's buffer in a 4° C. refrigerator until use. They were trimmed of fat and muscle to provide a smooth surface for easy identification of changes to the size. All irradiations used an 810 nm LED (Thor) set to a power of ˜200 mW.
Untreated eyes received no further modification and were stored in Dulbecco's buffer in the refrigerator until use. Eyes to be treated had their epithelial layer on the cornea removed. An ethanol-soaked Kim wipe was applied to the cornea for two minutes and then a scalpel blade was used to scrape the layer off. Removal was confirmed using a fluorescein strip and long UV light. […] The eye was placed cornea up on a damp (D2O) gauze pad and then placed on a 10 mL beaker. The LED was placed above the eye to irradiate down for 10 minutes with 5-15 drops of either the soaking solution or D2O being applied every 2 minutes to keep the sample hydrated. Once completed, the irradiation process was repeated for the reverse side of the eye (by the retina), then the eye on its side (half cornea & sclera), and finally on the reverse side of the sideways eye. This was a total of four 10 minute irradiations aimed to treat the whole eye.
The eye expansion setup followed the protocol outlined below. The eyes were placed on a stand and 30 gauge needle was inserted from underneath. The chamber was filled with Dulbecco's buffer and two different antibiotics mixtures—an ophthalmic solution of Trimethoprim Sulfate and Polymyxin B Sulfate and an ophthalmic ointment of Neomycin and Polmyxin B Sulfates and Bacitracin Zinc. A low pressure (˜22 mm Hg) was applied for one hour to equilibrate the eyes prior to applying a higher pressure (˜85 mm Hg) for the experiment. This is done by raising an IV bag to a predetermined height above the eye chamber. The higher pressure was applied from 12-36 hours (or until rupture) depending on the experiment. Two photos were taken every 15 minutes during both the low and high-pressure applications. […]
Image J was used to calculate the scleral area for comparison. […] Measured scleral areas where then converted to percent change from the initial time point (when the higher pressure was first applied). These values were averaged and standard errors calculated for comparison.
To evaluate the ability of ICG to crosslink the sclera, a similar set of eye expansion tests was performed. […] To quantify this observation, the area of the sclera was calculated using Image J for the initial and 12-hour time points (FIGS. 7(A-B)). Expansion from the initial time point was calculated and compared as a percent.

bovine gelatin = test: Young's Modulus measurement (Instron) of irradiated bovine gelatin strips; details: bovine gelatin 25% wt, ICG 1 mg/mL, TEOA 90 mM; 810 nm 200 mW LED; 3 and 5 minute irradiations compiled
Procedure: All Young's Modulus values were determined using an Instron equipped with screw side action tensile grips and a load cell rated for max 100 N. Rates of pulling were between 3 mm/minute and 5 mm/minute. The software calculated the Young's Modulus from the force vs. distance/time.
Bovine gelatin sheets were made by heating the gelatin in Dulbecco's buffer to 75° C. for 30 minutes in order to dissolve the dried gelatin and make a viscous solution. Neat TEOA and a concentrated stock solution of ICG in deionized water were added to make the final concentrations: bovine gelatin=25% wt, TEOA=90 mM, and ICG=1 mg/mL. This solution was pipetted hot into a plexiglass mold with a Teflon spacer to form a sheet of the following dimensions: 14 cm×6 cm×1 mm. It was stored overnight in a 4° C. refrigerator to solidify. Twelve 1 cm×6 cm strips were cut from the solidified gel for triplicate analysis of 4 conditions: no irradiation, 3 minute, 5 minute, and 10 minute irradiations. An 810 nm 200 mW LED (Thor Labs) was used for treatment of the gel strip. The LED with a collimator produced a 1 cm×1 cm irradiation area, which was used to treat 1 cm portions of the gelatin strip at a time. For example, an initial irradiation was applied for 3 minutes on 1 cm of the gel, then the gel was shifted 1 cm to a new, untreated portion. […]

[2] = Singlet oxygen generation by DPBF decay (UV-Vis), 810 nm LED; format: physicochemical
Description: To evaluate the efficiency of singlet oxygen generation by ICG and an analog (IR-820) in vitro, the singlet oxygen generation was monitored. 1,3-diphenylisobenzofuran (DPBF), a compound that decays in the presence of singlet oxygen, and singlet oxygen sensor green (SOSG), a dye that increases fluorescence in the presence of singlet oxygen, were used as markers to indicate singlet oxygen generation by ICG and IR-820. […] For SOSG analysis, the fluorescence turn-on in H2O and D2O was compared to that observed when riboflavin—an FDA approved dye used in conjunction with UV light to treat keratoconus (corneal expansion)—was usedIn all cases, an increase in fluorescence emission at 525 nm was observed (using a 488nm excitation).

CC1(C)C(/C=C/C=C/C=C/C=C2\N(CCCCS(=O)(=O)O)c3ccc4ccccc4c3C2(C)C)=[N+](CCCCS(=O)(=O)[O-])c2ccc3ccccc3c21 [ICG, indocyanine green]
reduction in expansion, treated vs untreated ([1]; 12 hour time point): ~62%
reduction in expansion, treated vs untreated ([1]; 24 hour time point): 70%
reduction in expansion, fully treated eyes vs NIR light only treated eyes ([1]; 12 hour time point): ~69%
reduction in expansion, fully treated eyes vs NIR light only treated eyes ([1]; 24 hour time point): ~72%
increase of the Young's Modulus, irradiated vs non-irradiated sample (bovine gelatin): 26%
ICG and DPBF signal (UV-Vis) upon irradiation ([2]; 810 nm, 375 mW LED, in water): decrease
singlet oxygen generation (DPBF analysis) ([2]; in H2O or D2O): singlet oxygen generation was observed
